From patent publication US20210299144A1, “USE OF PR[…] TO REDUCE CYST FORMATION IN KIDNEY” (priority 2019, published 2021)

Legend:
TRPM4 = target: T1, TRPM4 (Mus musculus, UniProt Q7TN37); assay: TRPM4 current in cilia of TRPM3-knockout mIMCD-3 cells; assay type: biochemical, murine; conditions: 2 mM cytoplasmic MgATP, cilia lacking TRPM3
T1 construct: endogenous in cells; host or cells: mIMCD-3 cell line with TRPM3 knocked out by CRISPR/Cas9; excised primary cilia
From the text: The large-conductance ciliary channel is not detectable unless TRPP2 is expressed. Given the pharmacological similarities between the ciliary TRPP2-dependent channel and TRPM3, we investigated whether the ciliary channel also requires expression of TRPM3. We used an mIMCD-3 cell line in which TRPM3 was knocked out by CRISPR/Cas9 genome editing. In electrical recordings from the primary cilia of cells lacking TRPM3, the large-conductance channel was never seen (n=45, Table 1, TRPM3 KO). […] Knocking out TRPM3 had no effect on the activity of another ciliary channel, TRPM4. In 17 cilia tested from TRPM3-knockout cells, 1 mM cytoplasmic Ca^2+ on average activated a current at +100 mV of 47±7 pA. […] As in cilia of wild-type cells, 2 mM cytoplasmic MgATP blocked the TRPM4 current. […]
All recordings were done under voltage clamp at room temperature (24° C.). […] Total mean channel current was measured as the mean current minus the current attributed to leak channels. The latter was determined from an amplitude histogram. […] Channel open probabilities were determined from amplitude histograms and are reported only when the number of channels in the membrane was unambiguous. The presence or absence of active TRPP2 channels was assessed with the cilium or patch exposed to 3 μM cytoplasmic Ca^2+ and the voltage clamped to +40 mV. […]

mIMCD-3 cells = assay: Measuring intracellular calcium (Fura2-AM, F340/F380) in mIMCD-3 cells; assay type: cell-based, murine; conditions: 200 μM pregnenolone sulfate in 0.4% DMSO
Experimental: Wild-type (WT) mIMCD-3 cells and a clone of mIMCD-3 cells that lacked TRPP2 (TRPP2 KO) were grown to confluence in a 96-well plate and loaded with Fura2-AM, a ratiometric Ca^2+ indicator dye. The ratio of the fluorescence (after background subtraction) at 340 nm and 380 nm (F340/F380) correlates with the cytoplasmic Ca^2+ concentration. […] Unlike in the electrophysiological ciliary recordings, here the apical surface of the cell, including the cilium, is exposed to the pregnenolone sulfate. […] Responses from individual wells are shown as black circles. The experiment was done with two different passages for each cell line for a total of 19 wells per condition.
Wild-type mIMCD-3 cells and one mIMCD-3 clone with TRPP2 knocked out were grown to confluence in a 96-well plate. Standard external solution with 1 mM probenecid was used for all solutions. […] The ratio of the fluorescence (after background subtraction) at 340 nm and 380 nm (F340/F380) indicates the cytoplasmic Ca^2+ concentration and was measured on a BioTek Synergy 4 plate reader. Background fluorescence (wells with cells, 0.01% pluronic acid, and 0.1% DMSO in standard external solution, but no dye) was subtracted from the F340 and F380 readings. […]

[1] = target: T2, ciliary TRPP2-dependent channel (Mus musculus, UniProt J9SQF3); assay: Electrical recording of the large-conductance channel in single excised primary cilia of mIMCD-3 cells; assay type: biochemical, murine; set-up: mean single-channel conductance (slope) / extrapolated reversal potential (x-intercept): dose or concentration left out as unconfirmed; conditions: for increase of mean channel current (factor): +60 mV
T2 construct: Electrical recordings were made from primary cilia of mIMCD-3 cells; host or cells: mIMCD-3 cells, excised primary cilia (inside-out) or apical membrane patches
T2 sequence (J9SQF3 whole entry): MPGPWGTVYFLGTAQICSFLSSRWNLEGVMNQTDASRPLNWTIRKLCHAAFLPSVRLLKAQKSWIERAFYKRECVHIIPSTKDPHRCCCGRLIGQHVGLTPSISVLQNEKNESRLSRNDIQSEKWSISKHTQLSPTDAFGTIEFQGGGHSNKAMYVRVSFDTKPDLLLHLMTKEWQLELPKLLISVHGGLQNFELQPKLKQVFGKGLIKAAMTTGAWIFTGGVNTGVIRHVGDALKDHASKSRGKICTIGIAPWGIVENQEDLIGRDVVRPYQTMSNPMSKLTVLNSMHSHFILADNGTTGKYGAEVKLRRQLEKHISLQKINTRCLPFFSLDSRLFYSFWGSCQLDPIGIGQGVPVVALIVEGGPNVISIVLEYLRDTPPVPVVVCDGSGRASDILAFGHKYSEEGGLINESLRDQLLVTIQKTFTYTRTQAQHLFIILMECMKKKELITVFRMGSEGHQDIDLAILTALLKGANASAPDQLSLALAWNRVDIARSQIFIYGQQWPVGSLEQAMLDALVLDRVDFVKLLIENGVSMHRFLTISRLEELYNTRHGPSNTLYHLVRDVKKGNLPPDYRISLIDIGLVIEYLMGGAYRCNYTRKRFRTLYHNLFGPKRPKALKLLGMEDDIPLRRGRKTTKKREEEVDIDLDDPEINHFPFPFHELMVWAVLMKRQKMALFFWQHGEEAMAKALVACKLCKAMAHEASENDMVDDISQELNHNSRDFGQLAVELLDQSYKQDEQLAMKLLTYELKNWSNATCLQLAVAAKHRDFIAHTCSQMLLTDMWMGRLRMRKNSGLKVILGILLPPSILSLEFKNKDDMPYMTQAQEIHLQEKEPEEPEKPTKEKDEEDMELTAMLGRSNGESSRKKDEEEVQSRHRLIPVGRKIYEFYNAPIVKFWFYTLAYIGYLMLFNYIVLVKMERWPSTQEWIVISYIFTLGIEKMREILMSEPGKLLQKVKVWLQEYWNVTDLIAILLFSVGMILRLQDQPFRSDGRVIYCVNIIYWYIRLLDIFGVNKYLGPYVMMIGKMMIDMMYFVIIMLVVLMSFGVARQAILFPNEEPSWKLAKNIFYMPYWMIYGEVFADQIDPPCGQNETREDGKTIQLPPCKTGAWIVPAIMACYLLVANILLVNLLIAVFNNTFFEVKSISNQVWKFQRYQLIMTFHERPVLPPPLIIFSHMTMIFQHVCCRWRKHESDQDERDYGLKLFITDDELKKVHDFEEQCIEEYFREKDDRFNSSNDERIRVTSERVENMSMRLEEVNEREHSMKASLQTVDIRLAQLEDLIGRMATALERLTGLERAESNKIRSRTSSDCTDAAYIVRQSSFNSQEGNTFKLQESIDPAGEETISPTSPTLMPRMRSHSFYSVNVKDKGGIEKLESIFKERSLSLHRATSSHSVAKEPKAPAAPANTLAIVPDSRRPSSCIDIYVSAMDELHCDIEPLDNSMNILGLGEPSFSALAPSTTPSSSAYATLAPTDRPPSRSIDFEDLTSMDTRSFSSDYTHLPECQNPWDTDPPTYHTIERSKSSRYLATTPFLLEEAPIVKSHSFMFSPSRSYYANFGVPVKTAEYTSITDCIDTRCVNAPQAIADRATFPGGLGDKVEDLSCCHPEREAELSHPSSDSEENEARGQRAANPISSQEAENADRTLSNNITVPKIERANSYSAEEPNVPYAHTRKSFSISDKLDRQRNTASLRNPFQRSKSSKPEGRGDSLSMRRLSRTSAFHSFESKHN
Experimental: (§1) Electrical recordings were made from primary cilia of mIMCD-3 cells. mIMCD-3 cells (murine epithelial cells from the renal inner medullary collecting duct, (CRL-2123, American Type Culture Collection, Manassas, Va., USA) were cultured on beads that were free to move in the recording chamber. Suction was applied to a recording pipette so that a single primary cilium entered the pipette. If a resistance of at least 1 GΩ formed between the membrane and the pipette, the cilium was excised from the cell. This left the cilium inside the recording pipette in the inside-out configuration. The pipette containing the cilium could then be transferred among different solutions that bathed the cytoplasmic face of the membrane. In one set of experiments (FIGS. 1 and 2), the external solution was replaced by perfusing the pipette (FIG. 14).
During recording, the beads coated with cells were stored in a standard external solution containing (in mM) NaCl 140, KCl 5, CaCl2 2, MgCl2 2, sodium pyruvate 2, HEPES 5, and D-glucose 9.4, adjusted to pH 7.4 with NaOH. The recording pipettes also contained this solution except as noted. […] The standard cytoplasmic solution contained (in mM) KCl 140, NaCl 5, CaCl2 0.7, MgCl2 2, HEPES 5, BAPTA 2, and D-glucose 5, adjusted to pH 7.4 with KOH. This solution contained 0.1 μM free Ca^2+. To make a cytoplasmic solution with 3 μM free Ca^2+, BAPTA was replaced with dibromoBAPTA, and the total CaCl2 was increased to 1.4 mM. In buffered solutions, concentrations of free Ca^2+ were estimated by the method of Bers (see Bers D M: “A simple method for the accurate determination of free [Ca] in Ca-EGTA solutions” Am J Physiol Cell Physiol. 1982; 242: C404-C408), which is herein incorporated by reference in its entirety.
All recordings were done under voltage clamp at room temperature (24° C.). Equipment, software, and technical details, including corrections for liquid junction potentials, were conducted as described in the article: Kleene S J, Kleene N K. “The native TRPP2-dependent channel of murine renal primary cilia” Am J Physiol Renal Physiol. 2017; 312: F96-F108, which is herein incorporated by reference in its entirety. During acquisition, currents were low-pass filtered at 2 kHz and digitized at 5 kHz. Total mean channel current was measured as the mean current minus the current attributed to leak channels. The latter was determined from an amplitude histogram. […] Channel open probabilities were determined from amplitude histograms and are reported only when the number of channels in the membrane was unambiguous. The presence or absence of active TRPP2 channels was assessed with the cilium or patch exposed to 3 μM cytoplasmic Ca^2+ and the voltage clamped to +40 mV. If no large-conductance channels were seen to open within 2 min, active TRPP2 channels were judged to be absent.

TRPP2-dependent channels = target: T3, TRPP2-dependent channels (Mus musculus, UniProt J9SQF3); assay: Incidences of TRPP2-dependent channels in apical and ciliary membranes; assay type: biochemical, murine; conditions: for incidence of TRPP2-dependent channels: PS 75 or 230 μM external, 3 μM cytoplasmic Ca2+, +40 mV
T3 construct: Electrical recordings were made from primary cilia of mIMCD-3 cells; host or cells: mIMCD-3 cells, excised primary cilia (inside-out) or apical membrane patches
T3 sequence (J9SQF3 whole entry): as above
Experimental: In Table 1, the presence or absence of active TRPP2 channels was assessed with the cilium or apical membrane patch exposed to 3 μM cytoplasmic Ca^2+ and the voltage clamped to +40 mV. If no large-conductance channels were seen to open within 2 min, active TRPP2 channels were judged to be absent. […] PS, pregnenolone sulfate; KO, knockout; ND, not determined.
as §1
All recordings were done under voltage clamp at room temperature (24° C.). Equipment, software, and technical details, including corrections for liquid junction potentials, were conducted as described in the article: Kleene S J, Kleene N K. “The native TRPP2-dependent channel of murine renal primary cilia” Am J Physiol Renal Physiol. 2017; 312: F96-F108, which is herein incorporated by reference in its entirety. During acquisition, currents were low-pass filtered at 2 kHz and digitized at 5 kHz. Total mean channel current was measured as the mean current minus the current attributed to leak channels. The latter was determined from an amplitude histogram. In each cilium reported, the number of large-conductance channels was between 1 and 5. Channel open probabilities were determined from amplitude histograms and are reported only when the number of channels in the membrane was unambiguous. The presence or absence of active TRPP2 channels was assessed with the cilium or patch exposed to 3 μM cytoplasmic Ca^2+ and the voltage clamped to +40 mV. If no large-conductance channels were seen to open within 2 min, active TRPP2 channels were judged to be absent. These cilia have a second Ca^2+-activated channel, TRPM4, but it is not activated by the concentrations of cytoplasmic Ca^2+ used in this study ([…] The half-maximal effect of Ca^2+ on ciliary TRPM4 occurs at 646 μM at +100 mV and 1166 μM at −100 mV.

T1 sequence (Q7TN37 whole entry): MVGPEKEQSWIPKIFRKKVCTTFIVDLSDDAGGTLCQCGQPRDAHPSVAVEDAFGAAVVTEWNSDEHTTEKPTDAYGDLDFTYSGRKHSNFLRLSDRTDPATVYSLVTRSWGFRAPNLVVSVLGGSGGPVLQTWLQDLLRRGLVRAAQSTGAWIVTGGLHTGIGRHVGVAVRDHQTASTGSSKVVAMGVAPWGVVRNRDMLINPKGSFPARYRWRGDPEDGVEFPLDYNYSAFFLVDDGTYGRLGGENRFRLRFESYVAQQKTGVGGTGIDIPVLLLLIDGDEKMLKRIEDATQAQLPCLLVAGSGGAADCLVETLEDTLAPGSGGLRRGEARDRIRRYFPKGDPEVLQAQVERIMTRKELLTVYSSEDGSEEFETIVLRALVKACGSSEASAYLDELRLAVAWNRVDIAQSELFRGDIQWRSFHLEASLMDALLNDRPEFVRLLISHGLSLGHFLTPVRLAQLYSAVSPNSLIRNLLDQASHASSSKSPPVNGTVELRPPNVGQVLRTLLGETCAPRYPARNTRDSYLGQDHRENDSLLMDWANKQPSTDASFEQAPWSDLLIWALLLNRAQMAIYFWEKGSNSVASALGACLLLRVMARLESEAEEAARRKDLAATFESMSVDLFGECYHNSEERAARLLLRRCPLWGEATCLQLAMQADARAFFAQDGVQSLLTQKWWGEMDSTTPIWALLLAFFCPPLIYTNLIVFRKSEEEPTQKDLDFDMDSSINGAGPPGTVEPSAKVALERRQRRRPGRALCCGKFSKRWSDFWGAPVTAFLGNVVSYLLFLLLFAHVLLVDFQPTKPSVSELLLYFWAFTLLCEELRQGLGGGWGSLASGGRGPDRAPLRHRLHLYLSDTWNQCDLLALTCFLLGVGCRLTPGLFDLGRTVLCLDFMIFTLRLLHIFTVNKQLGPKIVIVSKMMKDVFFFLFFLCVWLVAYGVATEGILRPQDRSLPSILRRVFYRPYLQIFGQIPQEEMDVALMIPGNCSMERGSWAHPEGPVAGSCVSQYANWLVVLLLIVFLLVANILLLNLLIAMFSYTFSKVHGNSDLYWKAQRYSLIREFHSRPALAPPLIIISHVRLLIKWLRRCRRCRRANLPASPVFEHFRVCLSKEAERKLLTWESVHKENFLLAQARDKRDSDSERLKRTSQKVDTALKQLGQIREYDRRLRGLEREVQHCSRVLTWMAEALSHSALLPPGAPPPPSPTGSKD

With `Nc1ncnc2c1ncn2[C@@H]1O[C@H](COP(=O)(O)OP(=O)([O-])OP(=O)([O-])O)[C@@H](O)[C@H]1O.[Mg+2]` [MgATP] the “fraction of TRPM4 current remaining after addition of MgATP” value (TRPM4) was 0.34±0.03.
With Pregnenolone sulfate the “cytoplasmic Ca2+ response (Post Stim. F340/F380 − Pre Stim. F340/F380)” value (mIMCD-3 cells; TRPP2 KO mIMCD-3 cells, compared with wild-type) was “smaller response”, the “cytoplasmic Ca2+ response (Post Stim. F340/F380 − Pre Stim. F340/F380)” value (mIMCD-3 cells; wild-type mIMCD-3 cells) was “increased cytoplasmic Ca^2+” and the “k (Boltzmann slope factor)” value ([1]; 1 μM external PS, 3 μM cytoplasmic Ca2+) was 13.5 ± 1.0 mV. For the same compound, the “V1/2 (potential at which open probability is 0.5)” value ([1]; 1 μM external PS, 3 μM cytoplasmic Ca2+, Vm −40 to +60 mV) was −5.6 ± 1.1 mV, the “channel activation at 230 μM compared with 75 μM” value ([1]; 3 μM cytoplasmic Ca2+, FIG. 7) was “no more effective” and the “k (Boltzmann slope factor)” value ([1]; 10 μM external PS, 3 μM cytoplasmic Ca2+) was 18.3 ± 1.5 mV. The “V1/2 (potential at which open probability is 0.5)” value ([1]; 10 μM external PS, 3 μM cytoplasmic Ca2+, Vm −40 to +50 mV) was −21.4 ± 1.4 mV, the “k (Boltzmann slope factor)” value ([1]; 75 μM external PS, KCl-based external solution, 3 μM cytoplasmic Ca2+) was 14.8 ± 0.9 mV and the “V1/2 (potential at which open probability is 0.5)” value ([1]; 75 μM external PS, KCl-based external solution, 3 μM cytoplasmic Ca2+, Vm −140 to −20 mV) was −67.2 ± 1.0 mV. The “increase of mean channel current (factor)” value ([1]; […] μM cytoplasmic pregnenolone sulfate, 0.1 μM cytoplasmic Ca2+) was 3.6±0.7, the “increase of mean channel current (factor)” value ([1]; […] μM external (pipette) pregnenolone sulfate, 0.1 μM cytoplasmic free Ca2+) was 30±12 and the “extrapolated reversal potential (x-intercept)” value ([1]; […] μM external pregnenolone sulfate, standard external solution) was −67±2 mV. For the same compound, the “mean single-channel conductance (slope)” value ([1]; […] μM external pregnenolone sulfate, standard external solution, fit −40 to +50 mV) was 92±3 pS, the “fraction of the mean channel current remaining after replacing external solution with one lacking pregnenolone sulfate” value ([1]; after 75 μM external pregnenolone sulfate, −10 mV, free Ca2+ 3) was 0.14±0.08 and the “channel activity (open probability)” value ([1]; external pregnenolone sulfate up to 75 μM, 0.1 μM cytoplasmic Ca2+, FIG. 5) was “significantly increased the channel activity”. For the same compound, the “incidence of TRPP2-dependent channels” value (TRPP2-dependent channels; apical membrane, TRPM3 KO) was 0/34, the “incidence of TRPP2-dependent channels” value (TRPP2-dependent channels; apical membrane, TRPP2 KO) was 0/30 and the “incidence of TRPP2-dependent channels” value (TRPP2-dependent channels; apical membrane, wild type) was 3/57. For the same compound, the “incidence of TRPP2-dependent channels” value (TRPP2-dependent channels; ciliary membrane, TRPP2 KO) was 0/28, the “incidence of TRPP2-dependent channels” value (TRPP2-dependent channels; ciliary membrane, wild type) was 77/259 and the “cilia in which channels were observed” value (TRPP2-dependent channels; wild type cilia exposed to pregnenolone sulfate) was 30%.
